Test results reported in publication doi:10.1101/2020.08.07.241463v2 (biorxiv, 2020).

Molecular target: T1, OpuAC (free / soluble substrate-binding domain) (Lactococcus lactis, UniProt Q7DAU8, N367C/N423C)
T1 sequence (Q7DAU8 320-573 N367C/N423C): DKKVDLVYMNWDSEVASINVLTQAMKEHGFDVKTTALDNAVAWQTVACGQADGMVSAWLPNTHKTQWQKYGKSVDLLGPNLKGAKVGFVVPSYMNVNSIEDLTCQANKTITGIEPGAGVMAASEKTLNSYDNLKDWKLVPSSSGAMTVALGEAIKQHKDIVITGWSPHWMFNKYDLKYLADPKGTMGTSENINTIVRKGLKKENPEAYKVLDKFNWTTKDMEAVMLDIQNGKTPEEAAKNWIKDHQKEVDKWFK
Experiment: smFRET

Kd: ~6 µM
Compound: C[N+](C)(C)CC(=O)[O-] [GB, glycine betaine]
